Assays:
[1] = test system: RVH-421; experiment: cells; assay type: functional, cell-based; details: Homo sapiens
Description: SANGER: Inhibition of human RVH-421 cell growth in a cell viability assay.

[2] = test system: DoTc2-4510; experiment: cells; assay type: functional, cell-based; details: Homo sapiens
[3] = test system: T98G; experiment: cells; assay type: functional, cell-based; details: Homo sapiens;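 also: growth inhibition of T98G cells, read out by a cell viability assay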
Description: SANGER: Inhibition of human T98G cell growth in a cell viability assay.

[4] = test system: SK-OV-3; experiment: cells; assay type: functional, cell-based; details: Homo sapiens;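 also: growth inhibition of SK-OV-3 human cells, read out with a cell viability assay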
Description: SANGER: Inhibition of human SK-OV-3 cell growth in a cell viability assay.

[5] = test system: HT-1080; experiment: cells; assay type: functional, cell-based; details: Homo sapiens
Description: SANGER: Inhibition of human HT-1080 cell growth in a cell viability assay.

[6] = test system: NCI-N87; experiment: cells; assay type: functional, cell-based; details: Homo sapiens;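 also: growth inhibition of human NCI-N87 cells, read out with a cell viability assay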
Description: SANGER: Inhibition of human NCI-N87 cell growth in a cell viability assay.

[7] = test system: LB996-RCC; experiment: cells; assay type: functional, cell-based; details: Homo sapiens
Description: SANGER: Inhibition of human LB996-RCC cell growth in a cell viability assay.

[8] = test system: CAL-72; experiment: cells; assay type: functional, cell-based; details: Homo sapiens;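 also: cell viability assay measuring inhibition of proliferation in the CAL-72 cell line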
Description: SANGER: Inhibition of human CAL-72 cell growth in a cell viability assay.

[9] = test system: MDA-MB-231; experiment: cells; assay type: functional, cell-based; details: Homo sapiens
Description: SANGER: Inhibition of human MDA-MB-231 cell growth in a cell viability assay.

[10] = test system: GP5d; experiment: cells; assay type: functional, cell-based; details: Homo sapiens;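 also: growth inhibition of human GP5d cells, read out with a cell viability assay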
Description: SANGER: Inhibition of human GP5d cell growth in a cell viability assay.

[11] = test system: NCI-H2052; experiment: cells; assay type: functional, cell-based; details: Homo sapiens;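 also: growth inhibition of NCI-H2052 cells, read out with a cell viability assay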
Description: SANGER: Inhibition of human NCI-H2052 cell growth in a cell viability assay.

[12] = test system: MeWo; experiment: cells; assay type: functional, cell-based; details: Homo sapiens;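 also: growth inhibition of MeWo cells, determined by a cell viability readout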
Description: SANGER: Inhibition of human Mewo cell growth in a cell viability assay.

[13] = test system: BFTC-905; experiment: cells; assay type: functional, cell-based; details: Homo sapiens
Description: SANGER: Inhibition of human BFTC-905 cell growth in a cell viability assay.

[14] = test system: OVCAR-3; experiment: cells; assay type: functional, cell-based; details: Homo sapiens;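 also: growth inhibition of human OVCAR-3 cells, determined by a cell viability assay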
Description: SANGER: Inhibition of human OVCAR-3 cell growth in a cell viability assay.

[15] = test system: EGI-1; experiment: cells; assay type: functional, cell-based; details: Homo sapiens;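 also: cell viability readout used to gauge growth inhibition of EGI-1 cells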
Description: SANGER: Inhibition of human EGI-1 cell growth in a cell viability assay.

[16] = test system: A2780; experiment: cells; assay type: functional, cell-based; details: Homo sapiens;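 also: growth inhibition of A2780 cells, read out with a cell viability assay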
Description: SANGER: Inhibition of human A2780 cell growth in a cell viability assay.

[17] = test system: M059J; experiment: cells; assay type: functional, cell-based; details: Homo sapiens;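 also: growth inhibition of M059J cells, read out with a cell viability assay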
Description: SANGER: Inhibition of human M059J cell growth in a cell viability assay.

[18] = test system: MHH-ES-1; experiment: cells; assay type: functional, cell-based; details: Homo sapiens
Description: SANGER: Inhibition of human MHH-ES-1 cell growth in a cell viability assay.

[19] = test system: HT1197; experiment: cells; assay type: functional, cell-based, HT-1197; details: Homo sapiens
Description: SANGER: Inhibition of human HT-1197 cell growth in a cell viability assay.

[20] = test system: NCI-H1693; experiment: cells; assay type: functional, cell-based; details: Homo sapiens;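 also: growth inhibition of the human cell line, read out with a cell viability assay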
Description: SANGER: Inhibition of human NCI-H1693 cell growth in a cell viability assay.

[21] = test system: COLO-680N; experiment: cells; assay type: functional, cell-based; details: Homo sapiens;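 also: cell viability assay used to measure inhibition of COLO-680N cell growth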
Description: SANGER: Inhibition of human COLO-680N cell growth in a cell viability assay.

[22] = test system: GAMG; experiment: cells; assay type: functional, cell-based; details: Homo sapiens;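 also: cell growth inhibition measured by a viability assay in the GAMG human cell line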
Description: SANGER: Inhibition of human GAMG cell growth in a cell viability assay.

[23] = test system: SNU-387; experiment: cells; assay type: functional, cell-based; details: Homo sapiens
Description: SANGER: Inhibition of human SNU-387 cell growth in a cell viability assay.

[24] = test system: PANC-08-13; experiment: cells; assay type: functional, cell-based; details: Homo sapiens
Description: SANGER: Inhibition of human PANC-08-13 cell growth in a cell viability assay.

[25] = test system: KYSE-410; experiment: cells; assay type: functional, cell-based; details: Homo sapiens;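 also: growth inhibition of KYSE-410 cells, measured through a cell viability readout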
Description: SANGER: Inhibition of human KYSE-410 cell growth in a cell viability assay.

[26] = test system: SK-MES-1; experiment: cells; assay type: functional, cell-based; details: Homo sapiens;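 also: growth inhibition of human SK-MES-1 cells, read out with a cell viability assay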
Description: SANGER: Inhibition of human SK-MES-1 cell growth in a cell viability assay.

[27] = test system: OAW-28; experiment: cells; assay type: functional, cell-based; details: Homo sapiens;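 also: growth inhibition of OAW-28 cells, read out with a cell viability assay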
Description: SANGER: Inhibition of human OAW-28 cell growth in a cell viability assay.

[28] = test system: Capan-2; experiment: cells; assay type: functional, cell-based; details: Homo sapiens;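 also: Capan-2 cell growth inhibition, read out with a viability assay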
Description: SANGER: Inhibition of human Capan-2 cell growth in a cell viability assay.

[29] = test system: KYSE-510; experiment: cells; assay type: functional, cell-based; details: Homo sapiens;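 also: cell viability readout used to measure how strongly growth of the cell line is suppressed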
Description: SANGER: Inhibition of human KYSE-510 cell growth in a cell viability assay.

[30] = test system: BXPC-3; experiment: cells; assay type: functional, cell-based; details: Homo sapiens;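 also: growth inhibition of human BxPC-3 cells, read out by a cell viability assay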
Description: SANGER: Inhibition of human BxPC-3 cell growth in a cell viability assay.

[31] = test system: A-431; experiment: cells; assay type: functional, cell-based; details: Homo sapiens;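 also: growth inhibition of A-431 cells, determined with a cell viability read-out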
Description: SANGER: Inhibition of human A431 cell growth in a cell viability assay.

[32] = test system: JEG-3; experiment: cells; assay type: functional, cell-based; details: Homo sapiens;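 also: growth inhibition of human JEG-3 cells, read out with a cell viability assay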
Description: SANGER: Inhibition of human JEG-3 cell growth in a cell viability assay.

[33] = test system: NCI-H1651; experiment: cells; assay type: functional, cell-based; details: Homo sapiens;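 also: Read-out is a cell viability assay, with IC50 expressing inhibition of NCI-H1651 cell growth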
Description: SANGER: Inhibition of human NCI-H1651 cell growth in a cell viability assay.

[34] = test system: EW-22; experiment: cells; assay type: functional, cell-based; details: Homo sapiens;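 also: growth inhibition of the EW-22 cell line, measured with a cell viability readout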
Description: SANGER: Inhibition of human EW-22 cell growth in a cell viability assay.

[35] = test system: SiHa; experiment: cells; assay type: functional, cell-based; details: Homo sapiens;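 also: Viability-based readout of growth inhibition in SiHa cells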
Description: SANGER: Inhibition of human SiHa cell growth in a cell viability assay.

[36] = test system: DOK; experiment: cells; assay type: functional, cell-based; details: Homo sapiens;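 also: cell viability assay read-out, values reflect inhibition of cell growth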
Description: SANGER: Inhibition of human DOK cell growth in a cell viability assay.

[37] = test system: NCI-H2405; experiment: cells; assay type: functional, cell-based; details: Homo sapiens;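 also: growth inhibition of the human cell line, read out with a cell viability assay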
Description: SANGER: Inhibition of human NCI-H2405 cell growth in a cell viability assay.

[38] = test system: NCI-H661; experiment: cells; assay type: functional, cell-based; details: Homo sapiens;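 also: cell viability assay read-out, IC50 being the concentration that inhibits growth of the cells by half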
Description: SANGER: Inhibition of human NCI-H661 cell growth in a cell viability assay.

[39] = test system: G-402; experiment: cells; assay type: functional, cell-based; details: Homo sapiens
Description: SANGER: Inhibition of human G-402 cell growth in a cell viability assay.

[40] = test system: COLO-678; experiment: cells; assay type: functional, cell-based; details: Homo sapiens
Description: SANGER: Inhibition of human COLO-678 cell growth in a cell viability assay.

[41] = test system: NCI-H1993; experiment: cells; assay type: functional, cell-based; details: Homo sapiens;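 also: growth inhibition of the cancer cell line, assessed with a cell viability assay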
Description: SANGER: Inhibition of human NCI-H1993 cell growth in a cell viability assay.

[42] = test system: SAS; experiment: cells; assay type: functional, cell-based; details: Homo sapiens;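 also: growth inhibition of SAS cells, read out with a cell viability assay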
Description: SANGER: Inhibition of human SAS cell growth in a cell viability assay.

[43] = test system: SW1573; experiment: cells; assay type: functional, cell-based; details: Homo sapiens;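 also: growth inhibition of SW1573 cells, read out with a cell viability assay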
Description: SANGER: Inhibition of human SW1573 cell growth in a cell viability assay.

[44] = test system: UACC-893; experiment: cells; assay type: functional, cell-based; details: Homo sapiens
Description: SANGER: Inhibition of human UACC-893 cell growth in a cell viability assay.

[45] = test system: MEL-JUSO; experiment: cells; assay type: functional, cell-based; details: Homo sapiens;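 also: growth inhibition of human MEL-JUSO cells, read out with a cell viability assay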
Description: SANGER: Inhibition of human MEL-JUSO cell growth in a cell viability assay.

[46] = test system: BC1 cell line; experiment: SANGER: Inhibition of human BC-1 cell growth in a cell viability assay.; assay type: functional, cell-based
[47] = test system: BC-3; experiment: cells; assay type: functional, cell-based; details: Homo sapiens;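 also: cell viability assay measuring growth inhibition of human BC-3 cells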
Description: SANGER: Inhibition of human BC-3 cell growth in a cell viability assay.

[48] = test system: MKN-1; experiment: cells; assay type: functional, cell-based; details: Homo sapiens;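 also: growth inhibition of human MKN1 cells, read out by a cell viability measurement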
Description: SANGER: Inhibition of human MKN1 cell growth in a cell viability assay.

[49] = test system: Daudi; experiment: cells; assay type: functional, cell-based; details: Homo sapiens;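 also: growth inhibition of Daudi cells, read out by a viability assay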
Description: SANGER: Inhibition of human Daudi cell growth in a cell viability assay.

[50] = test system: NCI-H2141; experiment: cells; assay type: functional, cell-based; details: Homo sapiens;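 also: growth inhibition of human NCI-H2141 cells, read out with a cell viability assay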
Description: SANGER: Inhibition of human NCI-H2141 cell growth in a cell viability assay.

[51] = test system: GDM-1; experiment: cells; assay type: functional, cell-based; details: Homo sapiens;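 also: cell viability readout used to measure growth inhibition of human GDM-1 cells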
Description: SANGER: Inhibition of human GDM-1 cell growth in a cell viability assay.

[52] = test system: SK-MM-2; experiment: cells; assay type: functional, cell-based; details: Homo sapiens;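 also: growth inhibition of human SK-MM-2 cells, read out with a cell viability assay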
Description: SANGER: Inhibition of human SK-MM-2 cell growth in a cell viability assay.

[53] = test system: RPMI 8402; experiment: SANGER: Inhibition of human RPMI-8402 cell growth in a cell viability assay.; assay type: functional, cell-based
[54] = test system: MKN-45; experiment: cells; assay type: functional, cell-based; details: Homo sapiens;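 also: growth inhibition of human MKN-45 cells, measured with a cell viability assay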
Description: SANGER: Inhibition of human MKN45 cell growth in a cell viability assay.

[55] = test system: SIG-M5; experiment: cells; assay type: functional, cell-based; details: Homo sapiens;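 also: cell viability assay read-out, measuring how strongly growth of cultured human SIG-M5 cells is inhibited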
Description: SANGER: Inhibition of human SIG-M5 cell growth in a cell viability assay.

[56] = test system: LB647-SCLC; experiment: cells; assay type: functional, cell-based; details: Homo sapiens;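 also: cell growth inhibition, read out by a viability assay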
Description: SANGER: Inhibition of human LB647-SCLC cell growth in a cell viability assay.

[57] = test system: J82; experiment: cells; assay type: functional, cell-based; details: Homo sapiens;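 also: growth inhibition of J82 cells, read out with a cell viability assay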
Description: SANGER: Inhibition of human J82 cell growth in a cell viability assay.

[58] = test system: NCI-H889; experiment: cells; assay type: functional, cell-based; details: Homo sapiens;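 also: cell growth inhibition of the cell line, read out with a viability assay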
Description: SANGER: Inhibition of human NCI-H889 cell growth in a cell viability assay.

[59] = test system: BL-41; experiment: cells; assay type: functional, cell-based; details: Homo sapiens;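 also: growth inhibition of human BL-41 cells, read out with a cell viability assay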
Description: SANGER: Inhibition of human BL-41 cell growth in a cell viability assay.

[60] = test system: TE-15; experiment: cells; assay type: functional, cell-based; details: Homo sapiens;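 also: cell viability readout of growth inhibition in TE-15 cells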
Description: SANGER: Inhibition of human TE-15 cell growth in a cell viability assay.

[61] = test system: SNU-C1; experiment: cells; assay type: functional, cell-based; details: Homo sapiens;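 also: growth inhibition of SNU-C1 human cells, read out by a cell viability assay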
Description: SANGER: Inhibition of human SNU-C1 cell growth in a cell viability assay.

[62] = test system: NCI-H1436; experiment: cells; assay type: functional, cell-based; details: Homo sapiens;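 also: growth suppression of human NCI-H1436 cells, determined with a cell viability readout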
Description: SANGER: Inhibition of human NCI-H1436 cell growth in a cell viability assay.

[63] = test system: COR-L279; experiment: SANGER: Inhibition of human COR-L279 cell growth in a cell viability assay.; assay type: functional, cell-based
[64] = test system: P31-FUJ; experiment: cells; assay type: functional, cell-based; details: Homo sapiens;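 also: growth inhibition of P31-FUJ cells, read out with a viability assay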
Description: SANGER: Inhibition of human P31-FUJ cell growth in a cell viability assay.

[65] = test system: LC-1F; experiment: cells; assay type: functional, cell-based; details: Homo sapiens;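 also: growth inhibition of human LC-1F cells, read out with a cell viability assay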
Description: SANGER: Inhibition of human LC-1F cell growth in a cell viability assay.

`CC(=O)c1c(C)c2cnc(Nc3ccc(N4CCNCC4)cn3)nc2n(C2CCCC2)c1=O` [PALBOCICLIB] was tested, and the IC50 [1] was over 4000 nM, the IC50 [2] was over 4000 nM and the IC50 [3] was 2010 nM. The IC50 [4] was over 4000 nM, the IC50 [5] was 1380 nM and the IC50 [6] was over 4000 nM. For the same molecule, the IC50 [7] was over 4000 nM, the IC50 [8] was over 4000 nM and the IC50 [9] was 3820 nM. For the same molecule, the IC50 [10] was over 4000 nM, the IC50 [11] was over 4000 nM and the IC50 [12] was 937 nM. For the same molecule, the IC50 [13] was 1240 nM, the IC50 [14] was over 4000 nM and the IC50 [15] was 2470 nM. For the same molecule, the IC50 [16] was over 4000 nM, the IC50 [17] was over 4000 nM and the IC50 [18] was 1180 nM. It also gave an IC50 [19] of over 4000 nM, an IC50 [20] of over 4000 nM and an IC50 [21] of over 4000 nM. It also gave an IC50 [22] of 2590 nM, an IC50 [23] of over 4000 nM and an IC50 [24] of over 4000 nM. For the same molecule, the IC50 [25] was over 4000 nM, the IC50 [26] was 2620 nM and the IC50 [27] was over 4000 nM. The IC50 [28] was over 4000 nM, the IC50 [29] was over 4000 nM and the IC50 [30] was over 4000 nM. It also gave an IC50 [31] of over 4000 nM, an IC50 [32] of over 4000 nM and an IC50 [33] of over 4000 nM. The IC50 [34] was over 4000 nM, the IC50 [35] was over 4000 nM and the IC50 [36] was over 4000 nM. The IC50 [37] was over 4000 nM, the IC50 [38] was over 4000 nM and the IC50 [39] was over 4000 nM. The IC50 [40] was over 4000 nM, the IC50 [41] was over 4000 nM and the IC50 [42] was 2200 nM. For the same molecule, the IC50 [43] was over 4000 nM.
In the case of `C/C=C(/C)C(=O)O[C@H]1C(C)=C2[C@H]([C@@H]1OC(=O)CCCCCCC)[C@@](C)(OC(C)=O)C[C@H](OC(=O)CCC)[C@@]1(O)[C@H]2OC(=O)[C@@]1(C)O` [THAPSIGARGIN], the IC50 [1] is reported as 3.67 nM, the IC50 [2] is reported as 12.4 nM and the IC50 [44] is reported as 58.7 nM. For the same molecule, the IC50 [3] was 0.741 nM, the IC50 [45] was under 2 nM and the IC50 [4] was 2.64 nM. The IC50 [46] was 23.2 nM, the IC50 [47] was 4.51 nM and the IC50 [48] was 47.4 nM. The IC50 [5] was under 2 nM, the IC50 [6] was over 512 nM and the IC50 [49] was 3.63 nM. It also gave an IC50 [7] of 31.3 nM, an IC50 [50] of 85 nM and an IC50 [8] of 2.27 nM. It also gave an IC50 [51] of 230 nM, an IC50 [9] of 0.557 nM and an IC50 [52] of 45.6 nM. The IC50 [10] was 41.7 nM, the IC50 [11] was 6.4 nM and the IC50 [53] was 5.23 nM. It also gave an IC50 [54] of 25.4 nM, an IC50 [12] of over 512 nM and an IC50 [13] of 0.662 nM. It also gave an IC50 [55] of under 2 nM, an IC50 [56] of 4.86 nM and an IC50 [14] of under 2 nM. The IC50 [15] was 21.7 nM, the IC50 [16] was under 2 nM and the IC50 [17] was 10.8 nM. The IC50 [18] was 4.18 nM, the IC50 [57] was 7.91 nM and the IC50 [19] was over 512 nM. For the same molecule, the IC50 [20] was over 512 nM, the IC50 [21] was 18 nM and the IC50 [22] was 8.86 nM. It also gave an IC50 [23] of 2.2 nM, an IC50 [24] of 23.8 nM and an IC50 [58] of over 512 nM. The IC50 [59] was under 2 nM, the IC50 [25] was under 2 nM and the IC50 [26] was under 2 nM. It also gave an IC50 [27] of 50.3 nM, an IC50 [28] of under 2 nM and an IC50 [60] of 4.91 nM. The IC50 [29] was under 2 nM, the IC50 [61] was over 512 nM and the IC50 [62] was over 512 nM. The IC50 [30] was 6.53 nM, the IC50 [31] was 4.11 nM and the IC50 [63] was 36.3 nM. It also gave an IC50 [32] of 9.78 nM, an IC50 [33] of 41.3 nM and an IC50 [35] of over 512 nM. It also gave an IC50 [36] of over 512 nM, an IC50 [37] of 1.14 nM and an IC50 [38] of 19.9 nM. It also gave an IC50 [39] of 3.95 nM, an IC50 [40] of over 512 nM and an IC50 [64] of 72.1 nM. For the same molecule, the IC50 [41] was over 512 nM, the IC50 [42] was 106 nM and the IC50 [65] was 4.19 nM. It also gave an IC50 [43] of 31.1 nM.
